Measured values taken from PMC13088180, “Chemical Proteomics Reveal the Inventory of Pyrroloquinoline Quinone Binding Proteins in Bacteria” (Journal of the American Chemical Society, 2026).

Key:
PedH = molecular target: T1, PedH (Pseudomonas putida, UniProt Q88JH0); details: 100 nM enzyme reconstituted with PQQ, 50 mM ethanol
T1 sequence (Q88JH0 28-595): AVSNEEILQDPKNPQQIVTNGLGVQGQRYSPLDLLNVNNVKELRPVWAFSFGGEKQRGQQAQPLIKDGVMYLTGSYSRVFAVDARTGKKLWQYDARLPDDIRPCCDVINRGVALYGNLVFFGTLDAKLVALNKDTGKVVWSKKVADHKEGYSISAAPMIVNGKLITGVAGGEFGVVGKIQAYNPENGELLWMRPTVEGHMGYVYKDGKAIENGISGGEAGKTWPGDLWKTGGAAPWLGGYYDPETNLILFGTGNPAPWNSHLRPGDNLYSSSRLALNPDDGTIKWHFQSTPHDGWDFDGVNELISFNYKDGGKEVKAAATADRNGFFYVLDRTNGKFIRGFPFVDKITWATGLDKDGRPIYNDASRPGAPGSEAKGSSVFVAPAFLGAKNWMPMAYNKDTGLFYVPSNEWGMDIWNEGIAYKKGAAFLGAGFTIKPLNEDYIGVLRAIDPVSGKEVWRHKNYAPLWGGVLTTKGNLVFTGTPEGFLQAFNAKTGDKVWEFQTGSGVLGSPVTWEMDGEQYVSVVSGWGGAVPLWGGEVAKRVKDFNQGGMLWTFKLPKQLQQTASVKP

YliI = molecular target: T2, YliI (Escherichia coli, UniProt P75804); test: coupled colorimetric assay; type: biochemical; details: 100 nM enzyme reconstituted with PQQ, 1.25 M glucose
T2 construct: recombinant, purified cofactor-free; details only in supplement
T2 sequence (P75804 21-371): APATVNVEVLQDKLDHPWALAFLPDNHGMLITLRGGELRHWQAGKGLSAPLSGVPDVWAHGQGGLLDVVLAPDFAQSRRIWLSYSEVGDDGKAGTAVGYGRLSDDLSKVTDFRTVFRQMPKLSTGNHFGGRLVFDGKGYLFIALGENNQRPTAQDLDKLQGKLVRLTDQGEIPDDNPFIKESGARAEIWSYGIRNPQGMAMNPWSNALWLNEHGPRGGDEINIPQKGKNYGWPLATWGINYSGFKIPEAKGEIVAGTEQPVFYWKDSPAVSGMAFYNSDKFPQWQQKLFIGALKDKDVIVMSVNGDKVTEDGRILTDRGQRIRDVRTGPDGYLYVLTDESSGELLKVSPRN

[1] = molecular target: T3, 6PGD / 6GPD (6-phosphogluconate dehydrogenase, decarboxylating) (Escherichia coli, UniProt P00350); test: MS/MS closed search of +310 Da on lysine; type: biochemical; details: covalent; E. coli K-12 lysate 3.5 mg/mL, 2000 uM PQQ, 2000 uM CaCl2, 37 °C, 4 h
T3 construct: gene gnd; endogenous protein in E. coli K-12 lysate
T3 sequence (P00350 1-468): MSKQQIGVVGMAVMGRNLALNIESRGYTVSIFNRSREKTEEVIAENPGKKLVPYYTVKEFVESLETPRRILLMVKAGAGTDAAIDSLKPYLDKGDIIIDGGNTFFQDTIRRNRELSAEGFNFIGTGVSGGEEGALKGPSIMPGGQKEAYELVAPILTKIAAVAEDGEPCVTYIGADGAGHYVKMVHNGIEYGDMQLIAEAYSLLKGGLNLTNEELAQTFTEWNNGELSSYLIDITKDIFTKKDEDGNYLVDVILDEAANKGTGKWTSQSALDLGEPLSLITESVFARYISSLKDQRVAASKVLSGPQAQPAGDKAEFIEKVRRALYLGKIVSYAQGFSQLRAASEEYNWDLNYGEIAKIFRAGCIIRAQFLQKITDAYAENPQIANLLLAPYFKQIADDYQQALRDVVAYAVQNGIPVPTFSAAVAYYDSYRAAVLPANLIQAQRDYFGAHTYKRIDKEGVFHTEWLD

Tig (trigger factor) = molecular target: T4, Tig (trigger factor) (Escherichia coli, UniProt P0A850); test: UV/vis spectral shift; intact protein LC-MS; type: binding; details: covalent; 100 uM protein, 300 uM PQQ, 4 °C overnight
T4 construct: recombinant from E. coli BL21, purified without PQQ
T4 sequence (P0A850 1-432): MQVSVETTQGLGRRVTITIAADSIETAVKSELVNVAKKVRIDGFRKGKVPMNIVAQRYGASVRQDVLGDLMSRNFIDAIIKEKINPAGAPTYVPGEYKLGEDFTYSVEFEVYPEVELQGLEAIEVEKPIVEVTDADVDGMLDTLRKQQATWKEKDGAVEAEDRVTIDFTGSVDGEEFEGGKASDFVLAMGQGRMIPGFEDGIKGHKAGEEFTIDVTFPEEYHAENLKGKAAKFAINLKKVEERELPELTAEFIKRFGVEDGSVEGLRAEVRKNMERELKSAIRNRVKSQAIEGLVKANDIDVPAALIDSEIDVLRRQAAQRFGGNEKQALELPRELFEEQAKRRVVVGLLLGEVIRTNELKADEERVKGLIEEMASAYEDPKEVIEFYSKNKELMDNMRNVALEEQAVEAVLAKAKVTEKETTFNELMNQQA

SurA = molecular target: T5, SurA (Escherichia coli, UniProt P0ABZ6); test: UV/vis spectral shift; intact protein LC-MS; type: binding; details: covalent; 100 uM protein, 300 uM PQQ, 4 °C overnight
T5 construct: recombinant from E. coli BL21, purified without PQQ
T5 sequence (P0ABZ6 21-428): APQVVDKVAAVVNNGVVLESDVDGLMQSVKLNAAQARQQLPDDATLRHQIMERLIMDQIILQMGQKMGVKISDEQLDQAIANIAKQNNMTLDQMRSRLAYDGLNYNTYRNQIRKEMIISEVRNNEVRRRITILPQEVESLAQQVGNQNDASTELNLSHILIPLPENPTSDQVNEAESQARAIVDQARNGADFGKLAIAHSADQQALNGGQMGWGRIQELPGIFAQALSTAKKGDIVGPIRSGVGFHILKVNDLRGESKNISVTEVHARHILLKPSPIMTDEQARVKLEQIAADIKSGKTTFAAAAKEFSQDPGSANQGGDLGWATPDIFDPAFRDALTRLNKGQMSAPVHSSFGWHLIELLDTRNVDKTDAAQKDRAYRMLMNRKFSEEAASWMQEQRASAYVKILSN

RuvB = molecular target: T6, RuvB (Escherichia coli, UniProt P0A812); test: UV/vis spectral shift; intact protein MS; MS/MS site mapping; type: binding; details: covalent; lysine K26 (main) and K46; 100 uM protein, 300 uM PQQ, 4 °C overnight
T6 construct: recombinant from E. coli BL21, purified without PQQ
T6 sequence (P0A812 1-336): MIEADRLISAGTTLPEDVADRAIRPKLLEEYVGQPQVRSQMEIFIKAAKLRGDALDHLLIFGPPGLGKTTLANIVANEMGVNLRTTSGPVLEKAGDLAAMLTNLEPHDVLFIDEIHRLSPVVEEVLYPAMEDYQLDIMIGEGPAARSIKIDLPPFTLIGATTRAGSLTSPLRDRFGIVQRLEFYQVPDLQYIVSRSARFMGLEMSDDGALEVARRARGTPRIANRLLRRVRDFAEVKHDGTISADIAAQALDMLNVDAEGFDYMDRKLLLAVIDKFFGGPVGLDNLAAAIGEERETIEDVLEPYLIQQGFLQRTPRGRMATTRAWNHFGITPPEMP

[2] = molecular target: T7, MBP (maltose-binding protein) (Escherichia coli, UniProt P0AEX9); test: UV/vis spectral shift; intact protein LC-MS; details: covalent; 100 uM protein, 300 uM PQQ, 4 °C overnight
T7 construct: gene malE; recombinant from E. coli BL21, purified without PQQ

FklB = molecular target: T8, FklB (Escherichia coli, UniProt P0A9L3); test: UV/vis spectral shift; competition of PQQ4 labelling; type: binding; details: no covalent adduct by intact protein MS
T8 construct: recombinant from E. coli BL21, purified without PQQ
T8 sequence (P0A9L3 2-206): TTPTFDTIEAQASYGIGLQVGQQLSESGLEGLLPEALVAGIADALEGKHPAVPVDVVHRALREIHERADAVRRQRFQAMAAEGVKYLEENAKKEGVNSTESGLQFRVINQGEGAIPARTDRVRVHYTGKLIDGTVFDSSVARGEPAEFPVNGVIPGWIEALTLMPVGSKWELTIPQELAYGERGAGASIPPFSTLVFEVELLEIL

PpiD = molecular target: T9, PpiD (Pseudomonas putida, UniProt Q88KI6); test: UV/vis spectral shift; intact protein LC-MS; type: binding; details: covalent; 100 uM protein, 300 uM PQQ, 4 °C overnight
T9 construct: gene PP_2304; recombinant from E. coli BL21, purified without PQQ
T9 sequence (Q88KI6 36-623): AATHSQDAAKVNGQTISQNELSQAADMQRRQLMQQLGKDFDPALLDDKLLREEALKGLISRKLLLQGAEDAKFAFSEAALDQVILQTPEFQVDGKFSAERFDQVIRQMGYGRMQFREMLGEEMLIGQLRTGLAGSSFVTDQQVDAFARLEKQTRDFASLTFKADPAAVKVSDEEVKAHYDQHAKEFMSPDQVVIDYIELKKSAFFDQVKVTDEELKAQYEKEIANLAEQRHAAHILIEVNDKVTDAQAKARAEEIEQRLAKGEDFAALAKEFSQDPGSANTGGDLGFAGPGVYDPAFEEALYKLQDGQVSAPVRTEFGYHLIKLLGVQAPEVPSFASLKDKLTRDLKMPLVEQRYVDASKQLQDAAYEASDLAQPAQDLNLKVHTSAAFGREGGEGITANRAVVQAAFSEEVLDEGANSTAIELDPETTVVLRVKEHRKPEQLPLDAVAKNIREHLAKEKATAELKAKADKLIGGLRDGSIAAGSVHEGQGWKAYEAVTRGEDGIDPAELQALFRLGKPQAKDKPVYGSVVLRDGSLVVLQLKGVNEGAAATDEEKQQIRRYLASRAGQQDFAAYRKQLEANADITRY

HtpG = molecular target: T10, HtpG (Escherichia coli, UniProt P0A6Z3); test: UV/vis spectral shift; intact protein LC-MS; type: binding; details: covalent; 100 uM protein, 300 uM PQQ, 4 °C overnight
T10 construct: recombinant from E. coli BL21, purified without PQQ; 73529 Da peak is a +135 Da adduct
T10 sequence (P0A6Z3 whole entry): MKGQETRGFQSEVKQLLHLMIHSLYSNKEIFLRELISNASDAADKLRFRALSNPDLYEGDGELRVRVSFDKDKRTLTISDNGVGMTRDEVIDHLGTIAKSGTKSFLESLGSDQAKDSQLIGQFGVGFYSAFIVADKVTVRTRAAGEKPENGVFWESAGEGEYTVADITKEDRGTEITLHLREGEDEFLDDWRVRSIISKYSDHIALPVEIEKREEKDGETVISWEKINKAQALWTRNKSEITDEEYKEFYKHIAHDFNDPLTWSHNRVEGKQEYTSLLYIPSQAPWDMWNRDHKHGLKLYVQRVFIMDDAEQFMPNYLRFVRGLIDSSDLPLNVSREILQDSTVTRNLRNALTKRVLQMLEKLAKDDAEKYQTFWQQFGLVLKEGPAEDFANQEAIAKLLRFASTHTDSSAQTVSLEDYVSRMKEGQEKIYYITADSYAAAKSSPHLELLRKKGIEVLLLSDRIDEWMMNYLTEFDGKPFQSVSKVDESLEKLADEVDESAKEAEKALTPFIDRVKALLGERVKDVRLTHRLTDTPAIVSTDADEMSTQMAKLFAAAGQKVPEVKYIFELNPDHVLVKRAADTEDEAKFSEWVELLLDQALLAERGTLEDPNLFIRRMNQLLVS

CCO [ethanol]
coupled colorimetric assay (PedH): Ethanol dehydrogenase activity of PedH reconstituted with PQQ or PQQ probes was measured

OC[C@H]1OC(O)[C@H](O)[C@@H](O)[C@@H]1O (stereo partly shown) [glucose]
coupled colorimetric assay (YliI): Glucose dehydrogenase activity of YliI reconstituted with PQQ or PQQ probes was measured

O=C(O)c1cc(C(=O)O)c2c(n1)C(=O)C(=O)c1cc(C(=O)O)[nH]c1-2 [PQQ, Pyrroloquinoline quinone]
mass shift [1]: confirmed Tig and 6GPD as covalent binding protein hits | +310 Da mass shift (Tig (trigger factor)): covalent PQQ binding in the case of Tig, HtpG, MBP, RuvB, SurA, and PpiD | +310 Da mass shift (SurA): covalent PQQ binding in the case of Tig, HtpG, MBP, RuvB, SurA, and PpiD | +310 Da mass shift (RuvB): confirming K26 as the predominant covalent binding site | +310 Da mass shift [2]: covalent PQQ binding in the case of Tig, HtpG, MBP, RuvB, SurA, and PpiD | UV/vis spectral shift; competition of PQQ4 labelling (FklB): addition of the cofactor revealed characteristic spectroscopic shifts comparable to those of YliI and PedH | +310 Da mass shift (PpiD): covalent PQQ binding in the case of Tig, HtpG, MBP, RuvB, SurA, and PpiD | +310 Da mass shift (HtpG): covalent PQQ binding in the case of Tig, HtpG, MBP, RuvB, SurA, and PpiD
